Data set [1] deals with T1, Peroxisome proliferator-activated receptor gamma (Homo sapiens, UniProt P37231).
T1 sequence (P37231 whole entry): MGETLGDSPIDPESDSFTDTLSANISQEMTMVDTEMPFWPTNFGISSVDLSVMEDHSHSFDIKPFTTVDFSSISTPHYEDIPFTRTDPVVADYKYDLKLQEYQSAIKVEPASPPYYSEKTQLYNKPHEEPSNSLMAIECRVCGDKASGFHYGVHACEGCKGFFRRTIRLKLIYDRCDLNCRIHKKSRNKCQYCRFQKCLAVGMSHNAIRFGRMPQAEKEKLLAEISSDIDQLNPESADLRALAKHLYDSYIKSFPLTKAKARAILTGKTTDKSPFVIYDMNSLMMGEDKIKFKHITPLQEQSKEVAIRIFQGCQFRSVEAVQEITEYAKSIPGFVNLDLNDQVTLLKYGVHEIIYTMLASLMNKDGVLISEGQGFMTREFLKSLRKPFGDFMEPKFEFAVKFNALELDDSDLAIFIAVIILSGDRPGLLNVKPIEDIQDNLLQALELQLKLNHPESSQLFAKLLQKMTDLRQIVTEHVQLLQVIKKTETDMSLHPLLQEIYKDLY
Kind of data set: Partial agonist activity at human PPARgamma expressed in CHO cells co-transfected with Gal4-responsive luciferase reporter plasmid after 24 hrs by transactivation assay. Type of data set: functional, cell-based. A general note: A reporter such as luciferase makes a cellular process visible.

For data set [2], the target named is T2, Peroxisome proliferator-activated receptor alpha (Homo sapiens, UniProt Q07869).
T2 sequence (Q07869 whole entry): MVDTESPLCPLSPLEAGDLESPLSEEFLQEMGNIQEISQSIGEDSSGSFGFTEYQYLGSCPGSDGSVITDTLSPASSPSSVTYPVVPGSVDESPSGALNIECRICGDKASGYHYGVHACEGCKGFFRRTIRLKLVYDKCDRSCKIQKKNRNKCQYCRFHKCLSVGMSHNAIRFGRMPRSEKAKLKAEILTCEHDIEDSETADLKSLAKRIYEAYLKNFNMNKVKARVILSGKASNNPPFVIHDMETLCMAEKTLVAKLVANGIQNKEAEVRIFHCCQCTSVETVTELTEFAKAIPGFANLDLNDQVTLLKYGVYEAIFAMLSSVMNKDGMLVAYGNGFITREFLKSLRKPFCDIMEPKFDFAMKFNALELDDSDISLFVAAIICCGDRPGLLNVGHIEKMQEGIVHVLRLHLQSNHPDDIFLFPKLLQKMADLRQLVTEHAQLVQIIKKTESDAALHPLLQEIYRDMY
Description: Partial agonist activity at human PPARalpha expressed in CHO cells co-transfected with Gal4-responsive luciferase reporter plasmid after 24 hrs by transactivation assay. In kind it is functional, cell-based.

Data set [3] has as its target T3, Peroxisome proliferator-activated receptor alpha (Homo sapiens) (UniProt Q07869).
T3 sequence (whole entry): T2 sequence (Q07869 whole entry)
Description: Partial agonist activity at human PPARalpha expressed in CHO cells co-transfected with Gal4-responsive luciferase reporter plasmid after 24 hrs by transactivation assay relative to fenofibric acid. In kind it is functional, cell-based. Also on record: concentration or dose not given beside the values.

A short description of data set [4]: Cmax in rat at 10 mg/kg, po. Type of data set: ADME, organism-based. Details: dose 10 mg/kg, route oral. As to conditions: in vivo.
A short description of data set [5]: Oral bioavailability in rat at 10 mg/kg. As to conditions: in vivo. In kind it is ADME, organism-based.
A short description of data set [6]: Clearance in rat at 1 mg/kg, iv. Type of data set: ADME, organism-based. Details: dose 1 mg/kg, route intravenous. The note with it: in vivo.
Data set [7] can be described thus: Volume of distribution in rat at 1 mg/kg, iv. Also on record: dose 1 mg/kg, route intravenous. The note with it: in vivo. Type of data set: ADME, organism-based.
A short description of data set [8]: Half life in rat at 1 mg/kg, iv. In kind it is ADME, organism-based. Details: dose 1 mg/kg, route intravenous. The note with it: in vivo.
Data set [9] deals with Mus musculus. Kind of data set: Antidiabetic effect in db/db mouse assessed as reduction in plasma glucose level at 30 mg/kg/day, po administered daily for 14 days. Type of data set: functional. As to conditions: 336 h.
Data set [10] deals with Mus musculus. Kind of data set: Antidiabetic effect in db/db mouse assessed as reduction in plasma triglyceride level at 30 mg/kg/day, po administered daily for 14 days. Type of data set: functional. The note with it: 336 h.
Data set [11] concerns Mus musculus. Description: Antidiabetic effect in db/db mouse assessed as increase in HDL cholesterol level at 30 mg/kg/day, po administered daily for 14 days. Type of data set: functional. As to conditions: 336 h.
For data set [12], the system named is Mus musculus. Description: Toxicity in db/db mouse assessed as body weight gain at 30 mg/kg/day, po administered daily for 14 days relative to control. The note with it: in vivo, 336 h. In kind it is organism-based. Also on record: route oral.
The subject of data set [13] is Mus musculus. Kind of data set: Toxicity in db/db mouse assessed as effect on food intake at 30 mg/kg/day, po administered daily for 14 days relative to control. Also on record: route oral. Type of data set: organism-based. The note with it: in vivo, 336 h.
Data set [14] deals with T4, Peroxisome proliferator-activated receptor alpha (Mus musculus) (UniProt P23204).
T4 sequence (whole entry): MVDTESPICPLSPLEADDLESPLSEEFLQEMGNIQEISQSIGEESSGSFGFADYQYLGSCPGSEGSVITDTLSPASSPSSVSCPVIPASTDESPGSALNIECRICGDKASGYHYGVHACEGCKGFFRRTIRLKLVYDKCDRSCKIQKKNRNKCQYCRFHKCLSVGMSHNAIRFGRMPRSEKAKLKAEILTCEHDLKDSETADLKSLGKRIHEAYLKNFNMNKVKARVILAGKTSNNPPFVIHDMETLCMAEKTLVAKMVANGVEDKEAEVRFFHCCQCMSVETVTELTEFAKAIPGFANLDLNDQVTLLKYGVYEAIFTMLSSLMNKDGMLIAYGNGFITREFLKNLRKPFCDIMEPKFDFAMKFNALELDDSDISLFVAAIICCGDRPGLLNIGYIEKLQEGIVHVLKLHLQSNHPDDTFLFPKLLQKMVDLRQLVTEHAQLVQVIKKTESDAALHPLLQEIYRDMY
Description: Partial agonist activity at mouse PPARalpha expressed in CHO cells co-transfected with Gal4-responsive luciferase reporter plasmid after 24 hrs by transactivation assay relative to fenofibric acid. In kind it is functional, cell-based.

The species named for the next data set is Homo sapiens. Kind of data set: Selectivity ratio of EC50 for human PPARalpha to EC50 for human PPARgamma.
A short description of data set [15]: Selectivity ratio of EC50 for mouse PPARalpha to EC50 for human PPARgamma.

The EC50 is the midpoint of the concentration-response curve. A word on the Cmax: it is the peak of the concentration-time curve. The clearance is a measure of how efficiently the substance is removed, as volume per time. What is called Vd is the apparent volume that relates the amount in the body to the concentration in plasma or blood. A word on the half-life: it is the time in which the quantity being followed falls by half. In general, inhibition in vivo refers to the share of the control response that was lost under treatment.

Turning to `Cc1ccc(C(=O)c2nccn2C/C=C/c2cccc(OCC(=O)O)c2)cc1`, the 50% effective concentration (EC50) in [1] and in data set [2] was > 10 µM throughout.
As for `Cc1ccc(C(=O)c2nc3ccccc3n2Cc2cccc(OC(C)(C)C(=O)O)c2)cc1`, in [1], it took 6 µM to reach a half-maximal effect (EC50).
With `Cc1ccc(C(=O)c2nc3c(n2C/C=C/c2cccc(OC(C)(C)C(=O)O)c2)CCCC3)cc1`, the EC50 stood at 3 µM in [1] and 3.6 µM in [2]. The Activity in [3] worked out at 60%.
In turn, `Cc1ccc(C(=O)c2nc3ccccc3n2/C=C/c2cccc(OC(C)(C)C(=O)[O-])c2)cc1.[Na+]` registered a Cmax in data set [4] of 4340 ng/mL. Also, the bioavailability in data set [5] stood at 110%. The compound further showed a clearance in data set [6] of 3.48 mL/min/kg. The Vd in data set [7] was found to be 0.747 L/kg. The compound also returned a half-life in data set [8] of 1.45 h. Moreover, the values for the inhibition in vivo at 30 mg/kg/day with Mus musculus [9], in the data set with Mus musculus [10] and with Mus musculus [11] were 60%, 86% and 38%, respectively. In addition, the Activity is listed as 11% in the data set on Mus musculus [12] and “Non-toxic” in the data set with Mus musculus [13].
Turning to `Cc1ccc(C(=O)c2nc3ccccc3n2C/C=C/c2cccc(OC(C)(C)C(=O)O)c2)cc1`, the figures for the EC50 in data set [1] and in data set [2] were 1.7 µM and 3.6 µM, respectively. This compound had an Activity in [3] of 42%.
In the case of `Cc1ccc(C(=O)c2nccn2C/C=C/c2cccc(OC(C)(C)C(=O)O)c2)cc1`, the results for the EC50 in data set [1] and in data set [2] were 12 µM and 0.62 µM, respectively. Also, the Activity in data set [3] was found to be 56%.
In the same order, the values of `Cc1ccc(C(=O)c2nc(C)c(C)n2C/C=C/c2cccc(OC(C)(C)C(=O)O)c2)cc1` are 4.8 µM, 3.6 µM and 60%.
`CCc1ccc(CCOc2ccc(CC3SC(=O)NC3=O)cc2)nc1` (centres undefined) [PIOGLITAZONE]: the inhibition in vivo at 30 mg/kg/day with Mus musculus [9] was determined as 46%; in the data set with Mus musculus [10] it was 69%; with Mus musculus [11], 10%. Besides, in the data set on Mus musculus [12], the Activity is listed as 17%.
With `Cc1ccc(C(=O)c2nc3ccccc3n2/C=C/c2cccc(OC(C)(C)C(=O)O)c2)cc1` [listing 1 of 2 here], the Activity in data set [14] worked out at 77%; in data set [3] it was 44%. Further, the Ratio EC50 in the data set filed under Homo sapiens came out at 18; in [15] it was 13.
On to `CC(C)(Oc1ccc(C(=O)c2ccc(Cl)cc2)cc1)C(=O)O`, for which, in data set [3], the Activity turned out to be 100%.
`Cc1ccc(C(=O)c2nc3ccccc3n2-c2cccc(OC(C)(C)C(=O)O)c2)cc1` gave an EC50 in data set [1] of 3.3 µM.
Turning to `Cc1ccc(C(=O)c2nc3ccccc3n2/C=C/c2cccc(OC(C)(C)C(=O)O)c2)cc1` [listing 2 of 2 here], the EC50 is 0.13 µM in [1] and 2.4 µM in data set [2].
For the compound `Cc1ccc(C(=O)c2nc3ccccc3n2C/C=C/c2cccc(OCC(=O)O)c2)cc1`, the results for the EC50 in data set [1] and in data set [2] were 4.6 µM and > 10 µM, respectively.

These data come from ChEMBL document CHEMBL1759929, “Synthesis and pharmacological evaluation of novel benzoylazole-based PPAR α/γ activators” (Bioorg Med Chem Lett, 2011).
